Consider 2 molecules from US7534768B2, “Treatment of DNA viral infections” (Henderson Morely Research and Development Ltd., priority 2000, dated 2009).

Read-outs that look alike come from different tables or passages of the source.

Data set [1] relates to Type 1 herpes simplex strain HFEM. In words: Inhibition of hsv1 in infected Vero cells (Example 1). Type of data set: cell-based, herpes simplex virus. Conditions: Human alphaherpesvirus 1, Vero; for inhibition at 1000 µg/mL: frusemide 1 mg/ml, digoxin 30 mcg/ml. Here is the method: . Culture and assay methods follow those described by Lennette and Schmidt (1979) for herpes simplex virus and Vero cells with minor modifications.
Type 1 herpes simplex strain HFEM is a derivative of the Rockerfeller strain HF (Wildy 1955), and Type 2 herpes simplex strain 3345, a penile isolate (Skinner et al 1977) were used as prototype strains. These prototypes were stored at −80° C. until needed.
African Green Monkey kidney cells (vero) were obtained from the National Institute of Biological Standards and Control UK and were used as the only cell line for all experiments in the examples.
Cells and viruses were maintained on Glasgows modified medium supplemented with 10% foetal bovine serum.

The test system of data set [2] is type 2 herpes simplex strain 3345. As to the kind of experiment: Inhibition of hsv2 replication in African green monkey kidney cells (Example 3). Type of data set: cell-based, herpes simplex virus. Conditions: for inhibition at 15 µg/mL: Digoxin 15 mcg/ml; for inhibition at 15 µg/mL / inhibition at 30 µg/mL: Frusemide 0 mg/ml; for inhibition at 30 µg/mL: Digoxin 30 mcg/ml; for Inhibition of virus replication / inhibition at 500 µg/mL: Digoxin 0 mcg/ml; for Inhibition of virus replication: Frusemide 1.0 mg.ml; for inhibition at 500 µg/mL: Frusemide 0.5 mg/ml, read-out: Inhibition of virus replication. From the text:
The compositions were applied to different types of vero cells (African green monkey kidney cells and […]) and infected with type 2 herpes simplex virus (strains 3345 and 180) at low, intermediate, and high multiplicities of infection (M0I). Inhibition of virus replication was scored on the scale:
The following results were obtained using African green monkey kidney cells and type 2 herpes simplex strain 3345: […]

For data set [3] the following is noted: cited from earlier work.
Where [4] appears, read: Human alphaherpesvirus 2, read-out: Inhibition of virus replication, HIGH M0I HSV2.
The mark [5] stands for this setting: Human alphaherpesvirus 2, read-out: Inhibition of virus replication, INT. M0I HSV2.
Setting [6] is: Human alphaherpesvirus 2, read-out: Inhibition of virus replication, LOW M0I HSV2.

Turning to `C[C@H]1O[C@@H](O[C@H]2[C@@H](O)C[C@H](O[C@H]3[C@@H](O)C[C@H](O[C@H]4CC[C@@]5(C)[C@H](CC[C@@H]6[C@@H]5C[C@@H](O)[C@]5(C)[C@@H](C7=CC(=O)OC7)CC[C@]65O)C4)O[C@@H]3C)O[C@@H]2C)C[C@H](O)[C@@H]1O` [digoxin], the inhibition at 30 µg/mL in data set [1] (read-out: Inhibition of hsv1, Multiplicity of infection High, frusemide 1 mg/ml, digoxin 30 mcg/ml) stood at 0%; in data set [1] (read-out: Inhibition of hsv1, Multiplicity of infection Low, frusemide 1 mg/ml, digoxin 30 mcg/ml), 40%; in data set [1] (read-out: Inhibition of hsv1, Multiplicity of infection Medium, frusemide 1 mg/ml, digoxin 30 mcg/ml), 20%; in data set [2] (setting [4]) it was 0%; in data set [2] (setting [5]), 20%; in data set [2] (setting [6]) it was 60%. The inhibition at 15 µg/mL in data set [2] (setting [4]), in data set [2] (setting [5]) and in data set [2] (setting [6]) was 0% each time. Moreover, the solubility result is “slightly soluble” in data set [3] (in diluted (50%) alcohol and in chloroform); “freely soluble” in data set [3] (in pyridine); “practically insoluble” in data set [3] (in water and in ether).
As to `NS(=O)(=O)c1cc(C(=O)O)c(NCc2ccco2)cc1Cl` [frusemide, 4-chloro-N-furfuryl-5-sulfamoylanthranilic acid], the figures for the inhibition at 1000 µg/mL in data set [1] (Multiplicity of infection High), in data set [1] (Multiplicity of infection Low) and in data set [1] (Multiplicity of infection Medium) were 0%, 20% and 20%, respectively. The “Inhibition of virus replication” value is “++ (40% inhibition)” in data set [2] (HIGH M0I HSV2), “+++ (60% inhibition)” in data set [2] (INT. M0I HSV2) and “+++ (60% inhibition)” in data set [2] (LOW M0I HSV2). The inhibition at 500 µg/mL is 0% in data set [2] (Human alphaherpesvirus 2, HIGH M0I HSV2); 20% in data set [2] (Human alphaherpesvirus 2, INT. M0I HSV2); 20% in data set [2] (Human alphaherpesvirus 2, LOW M0I HSV2).
